Key:
HepG2 cell = experiment: alamarBlue fluorescence in Ex1b-luc transfected HepG2 cell; type: cell-based, human; details: added at 1%, 20 hours
Procedure: Immortalized human hepatoma-derived cell (HepG2 cell)
HepG2 cell was inoculated to 96 well culture plate at 30,000 cells per well, and Ex1b-luc was introduced using lipofectamine reagent (Invitrogen) according to the protocol described in the attached manual. The DNA was used at an amount of 0.1 μg per well. The same procedure was repeated for control without adding the DNA (2 wells).
The transfected cells were cultivated overnight, and plant extract prepared in Production Example 1, Table 2, or yeast extract (“YeastLiquid B”, Ichimaru Pharcos Co Ltd.), silk protein extract (“Silkgen G Soluble KE”, Ichimaru Pharcos Co Ltd.), milk protein (“Bioderma SX-14” Ichimaru Pharcos Co Ltd.), “lactoferrin S FREE”, Ichimaru Pharcos Co Ltd.), natto extract (“Soybean polymer F B-20”, Ichimaru Pharcos Co Ltd.), or royal jelly (“royal jelly extract”, Ichimaru Pharcos Co Ltd.) was added (1% or 0.1%), and the cultivation was continued for another 20 hours. After adding 20 μL of alamarBlue (BIOSOURCE), fluorescence intensity (excitation light 544 nm, fluorescence 590 nm) was measured. Luciferase activity was also measured by using PicaGene Dual SeaPansy Luminescence kit (Nippon Gene). The cells were lysed by adding 25 μL per well of the lysis buffer that had been diluted 5× lysis buffer to 1× concentration.

[1] = tested on: transcription control region for exon 1b of human aromatase gene; experiment: Luciferase reporter assay, Ex1b-luc in HepG2 cell (expression of exon 1b of aromatase gene); type: cell-based; details: added at 1%, 20 hours
Procedure: The region containing transcription control region for exon 1b of human aromatase gene and a part of the exon 1b was amplified by PCR from genomic DNA extracted from human normal keratinocyte by using the following primers: […]
The resulting PCR product was treated with restriction enzymes SpeI and EcoRI, and incorporated in SpeI site and EcoRI site in SeaPansy null Control Vector (Toyo Ink Mfg. Co., Ltd.) to produce Ex1b-luc plasmid. This plasmid was used in the luciferase assay as will be described below.
Immortalized human hepatoma-derived cell (HepG2 cell) […]
The transfected cells were cultivated overnight, and plant extract prepared in Production Example 1, Table 2, or yeast extract (“YeastLiquid B”, Ichimaru Pharcos Co Ltd.), silk protein extract (“Silkgen G Soluble KE”, Ichimaru Pharcos Co Ltd.), milk protein (“Bioderma SX-14” Ichimaru Pharcos Co Ltd.), “lactoferrin S FREE”, Ichimaru Pharcos Co Ltd.), natto extract (“Soybean polymer F B-20”, Ichimaru Pharcos Co Ltd.), or royal jelly (“royal jelly extract”, Ichimaru Pharcos Co Ltd.) was added (1% or 0.1%), and the cultivation was continued for another 20 hours. After adding 20 μL of alamarBlue (BIOSOURCE), fluorescence intensity (excitation light 544 nm, fluorescence 590 nm) was measured. Luciferase activity was also measured by using PicaGene Dual SeaPansy Luminescence kit (Nippon Gene). […]

For `OC[C@H]1O[C@H](O[C@H]2O[C@H](CO)[C@@H](O)[C@H](O)[C@H]2O)[C@H](O)[C@@H](O)[C@@H]1O` [Trehalose, trehalose], the AlamarBlue activity (HepG2 cell) was 113.9% and the Luciferase activity [1] was 141.0%.
